Measurements: ChEMBL document CHEMBL1201862, “PubChem BioAssay data set” (2004)
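Assay format: 96-well plates, 48-hour exposure. The concentration for 50% growth inhibition is given as GI50.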 The source made the active and inactive calls. Cut-off read from the data, not from the text of the source: active = GI50 up to about 1.1 µM and inactive = higher.

Assays:
Assay in all cases: NCI anticancer screen, dose series, 48 h
CCRF-CEM = tested on: CCRF-CEM
COLO 205 = tested on: COLO 205
HCT-15 = tested on: HCT-15
HL-60 = tested on: HL-60
HOP-62 = tested on: HOP-62
HOP-92 = tested on: HOP-92
HT-29 = tested on: HT-29
IGROV-1 = tested on: IGROV-1
KM12 = tested on: KM12
MOLT-4 = tested on: MOLT-4
Malme-3M = tested on: Malme-3M
NCI-H226 = tested on: NCI-H226
OVCAR-4 = tested on: OVCAR-4
RXF 393 = tested on: RXF 393
SF-268 = tested on: SF-268
SK-MEL-5 = tested on: SK-MEL-5
U-251 = tested on: U-251
UACC-62 = tested on: UACC-62
CAKI-1 = tested on: CAKI-1
SNB-19 = tested on: SNB-19

| Structure (SMILES) | GI50 (CCRF-CEM) | GI50 (COLO 205) | GI50 (HCT-15) [µM] | GI50 (HL-60) | GI50 (HOP-62) | GI50 (HOP-92) | GI50 (HT-29) | GI50 (IGROV-1) | GI50 (KM12) | GI50 (MOLT-4) | GI50 (Malme-3M) | GI50 (NCI-H226) | GI50 (OVCAR-4) | GI50 (RXF 393) | GI50 (SF-268) | GI50 (SK-MEL-5) | GI50 (U-251) | GI50 (UACC-62) | GI50 (CAKI-1) | GI50 (SNB-19) |
| --- | --- | --- | --- | --- | --- | --- | --- | --- | --- | --- | --- | --- | --- | --- | --- | --- | --- | --- | --- | --- |
| Nc1nc(Cl)cc(NCCCCCCCCCCCCNc2cc(Cl)nc(N)n2)n1 | 1.69 µM (inactive) | 19.9 µM (inactive) | 7.93 | 1.14 µM (inactive) | 12.2 µM (inactive) | 2.87 µM (inactive) | 10.5 µM (inactive) | 15.8 µM (inactive) | 83 µM (inactive) | 1.33 µM (inactive) | 24.4 µM (inactive) | 15 µM (inactive) | 4.36 µM (inactive) | 9.75 µM (inactive) | 28.2 µM (inactive) | 0.0861 µM (active) | 0.345 µM (active) | 6.84 µM (inactive) | – | – |
| O=C(Nc1cccc(C(F)(F)F)c1)C(=O)C(C(=O)c1ccc(Cl)c(Cl)c1)C1OC(=O)c2ccccc21 (stereo not drawn) | 28.4 µM (inactive) | 41.2 µM (inactive) | 35 | 29.4 µM (inactive) | 28.3 µM (inactive) | 26.8 µM (inactive) | 29.2 µM (inactive) | 39.6 µM (inactive) | 47.2 µM (inactive) | 48.9 µM (inactive) | 15.6 µM (inactive) | 19.9 µM (inactive) | 40 µM (inactive) | 14.7 µM (inactive) | 37.9 µM (inactive) | – | 23.1 µM (inactive) | 28.6 µM (inactive) | 88.1 µM (inactive) | 37.8 µM (inactive) |
| CCCCCC/C(CC(=O)CCC(=O)NCCc1ccccc1)=N\NC(=O)c1ccc2ccccc2c1O | 10.3 µM (inactive) | 54.2 µM (inactive) | – | 7.78 µM (inactive) | 36.7 µM (inactive) | 33 µM (inactive) | 55.3 µM (inactive) | 33.7 µM (inactive) | 35.1 µM (inactive) | 11.5 µM (inactive) | 42.4 µM (inactive) | 55 µM (inactive) | 37.8 µM (inactive) | 50.4 µM (inactive) | 22.6 µM (inactive) | 29.5 µM (inactive) | 37.9 µM (inactive) | 22 µM (inactive) | – | 59.8 µM (inactive) |
| [N-]=[N+]=CC(=O)c1ccccc1C#CCCc1ccccc1 | 10.9 µM (inactive) | 32 µM (inactive) | 26.1 | 8.05 µM (inactive) | 31.6 µM (inactive) | 18.9 µM (inactive) | 16.6 µM (inactive) | 36.9 µM (inactive) | 41.2 µM (inactive) | 12.1 µM (inactive) | 27.4 µM (inactive) | 29.4 µM (inactive) | 44.2 µM (inactive) | 30 µM (inactive) | – | 15.7 µM (inactive) | 10.2 µM (inactive) | 18.6 µM (inactive) | – | 38.3 µM (inactive) |
| C/C(=N\NC(=S)N1CCN(c2ccccn2)CC1)c1cccc(C)n1 | < 0.01 µM (active) | < 0.01 µM (active) | < 0.01 | 0.0115 µM (active) | 6.31 µM (inactive) | 3.81 µM (inactive) | < 0.01 µM (active) | < 0.01 µM (active) | 3.1 µM (inactive) | < 0.01 µM (active) | 2.59 µM (inactive) | 2.06 µM (inactive) | – | 1.32 µM (inactive) | 1.51 µM (inactive) | 1.53 µM (inactive) | < 0.01 µM (active) | 2.23 µM (inactive) | – | 7.26 µM (inactive) |
| Nc1ccc2[nH]c3c(-c4ccccc4)nccc3c2c1 | 14.1 µM (inactive) | 44 µM (inactive) | 41.3 | 12 µM (inactive) | > 84.5 µM (inactive) | 39.1 µM (inactive) | 36.1 µM (inactive) | 57.4 µM (inactive) | 53.7 µM (inactive) | 4.46 µM (inactive) | 76.4 µM (inactive) | 27.8 µM (inactive) | 23.7 µM (inactive) | 38.2 µM (inactive) | > 100 µM (inactive) | 19.8 µM (inactive) | 75 µM (inactive) | 29.2 µM (inactive) | – | > 100 µM (inactive) |
| CCCCC(C)C1CCC2(C)C=CC(=O)C(C)=C2C1O (stereo not drawn) | > 100 µM (inactive) | > 100 µM (inactive) | > 100 | > 100 µM (inactive) | > 100 µM (inactive) | > 100 µM (inactive) | > 100 µM (inactive) | > 100 µM (inactive) | > 100 µM (inactive) | > 100 µM (inactive) | – | > 100 µM (inactive) | > 100 µM (inactive) | > 100 µM (inactive) | > 100 µM (inactive) | > 100 µM (inactive) | > 100 µM (inactive) | > 100 µM (inactive) | > 100 µM (inactive) | > 100 µM (inactive) |
| COc1ccc2c(c1)/C(=C/CCN(C)C)c1ccccc1S2 | 54.6 µM (inactive) | 18.8 µM (inactive) | > 100 | 48.5 µM (inactive) | – | > 100 µM (inactive) | 76.6 µM (inactive) | – | > 100 µM (inactive) | 67.1 µM (inactive) | – | > 100 µM (inactive) | – | 35.6 µM (inactive) | 92.9 µM (inactive) | 16.2 µM (inactive) | > 100 µM (inactive) | – | – | > 100 µM (inactive) |
| CC1(C)CCC2(C(=O)O)C(O)CC3(C)C(=CCC4C5(C)CCC(OC6OCC(O)C(O)C6OC6OCC(O)C(O)C6OC6OCC(O)C(OC7OC(CO)C(O)C(O)C7O)C6O)C(C)(C)C5CCC43C)C2C1 (stereo not drawn) | 31 µM (inactive) | > 100 µM (inactive) | > 100 | 24.7 µM (inactive) | > 100 µM (inactive) | 29.4 µM (inactive) | > 100 µM (inactive) | > 100 µM (inactive) | 21.7 µM (inactive) | – | 27.2 µM (inactive) | 23.7 µM (inactive) | 28.5 µM (inactive) | 20 µM (inactive) | 21.8 µM (inactive) | > 100 µM (inactive) | 33.7 µM (inactive) | 31.7 µM (inactive) | > 100 µM (inactive) | 20 µM (inactive) |
| CCOC(=O)/C(=N/Nc1ccc(Cl)cc1)N1C(=S)N(C)N=C(C)C=C1S | > 100 µM (inactive) | > 100 µM (inactive) | > 100 | > 100 µM (inactive) | – | 50.7 µM (inactive) | > 100 µM (inactive) | > 100 µM (inactive) | > 100 µM (inactive) | > 100 µM (inactive) | – | – | > 100 µM (inactive) | 11.7 µM (inactive) | 29.9 µM (inactive) | > 100 µM (inactive) | 15.9 µM (inactive) | 34.6 µM (inactive) | 54.5 µM (inactive) | 34.6 µM (inactive) |
| O=C(O)c1cc2c3c(c1)[C@H]1C=CC[C@H]1CN3CC1CC=CC21 (stereo partly drawn) | > 100 µM (inactive) | > 100 µM (inactive) | > 100 | > 100 µM (inactive) | > 100 µM (inactive) | > 100 µM (inactive) | > 100 µM (inactive) | > 100 µM (inactive) | > 100 µM (inactive) | > 100 µM (inactive) | > 100 µM (inactive) | > 100 µM (inactive) | > 100 µM (inactive) | > 100 µM (inactive) | > 100 µM (inactive) | > 100 µM (inactive) | > 100 µM (inactive) | > 100 µM (inactive) | > 100 µM (inactive) | > 100 µM (inactive) |
| O=c1cc(N2CCCC2)[nH]c(=O)n1-c1cccc(C(F)(F)F)c1 | > 100 µM (inactive) | > 100 µM (inactive) | > 100 | > 100 µM (inactive) | > 100 µM (inactive) | > 100 µM (inactive) | > 100 µM (inactive) | > 100 µM (inactive) | > 100 µM (inactive) | > 100 µM (inactive) | > 100 µM (inactive) | > 100 µM (inactive) | > 100 µM (inactive) | > 100 µM (inactive) | > 100 µM (inactive) | – | > 100 µM (inactive) | > 100 µM (inactive) | > 100 µM (inactive) | > 100 µM (inactive) |
| CC(C)NC(=O)OCc1c(COC(=O)NC(C)C)c(-c2cc[n+](COC(=O)Cc3ccccc3)cc2)n2c1CCC2 | 38.5 µM (inactive) | > 100 µM (inactive) | > 100 | 31.9 µM (inactive) | 72.9 µM (inactive) | > 100 µM (inactive) | > 100 µM (inactive) | > 100 µM (inactive) | > 100 µM (inactive) | 47.8 µM (inactive) | > 100 µM (inactive) | > 100 µM (inactive) | > 100 µM (inactive) | > 100 µM (inactive) | 55.1 µM (inactive) | > 100 µM (inactive) | > 100 µM (inactive) | 56.2 µM (inactive) | 37.8 µM (inactive) | > 100 µM (inactive) |
| CCCCCC1CC(C(C)=O)CN1c1ccc(F)cc1 (stereo not drawn) | – | 48.1 µM (inactive) | 52.8 | > 10 µM (inactive) | – | 27.9 µM (inactive) | 30.8 µM (inactive) | – | 35.6 µM (inactive) | – | 54.7 µM (inactive) | – | – | 41 µM (inactive) | 32 µM (inactive) | 19.8 µM (inactive) | 41.5 µM (inactive) | – | – | > 10 µM (inactive) |
| CC1C(O)C2(Oc3cc4c(c5c3[C@@H](CC5O)[C@H]2C)CCC2Cc3nc5c(nc3C[C@@]42C)CC2CCC3C4=C[C@H]6O[C@@]7(O[C@@](C)(CO)C[C@@H]7O)C(C)[C@@]6(O)[C@]4(C)[C@@H](O)CC3[C@]2(C)C5)OC1(C)C (stereo partly drawn) | 0.0582 µM (active) | 0.152 µM (active) | 0.649 | 0.0644 µM (active) | 0.0715 µM (active) | 0.204 µM (active) | 0.0977 µM (active) | 0.128 µM (active) | 0.241 µM (active) | – | 0.0927 µM (active) | 0.135 µM (active) | 0.498 µM (active) | 0.0269 µM (active) | 0.0904 µM (active) | 0.237 µM (active) | 0.00302 µM (active) | 0.0877 µM (active) | 0.148 µM (active) | – |
